Holding throughout (format): biochemical
Assay [1] has as its target T1, HIV Integrase (Human immunodeficiency virus type 1 group M subtype B, UniProt P04585).
T1 construct: 0.26 ng of recombinant integrase was then incubated with the beads
In words: In vitro activity against integrase, Method B (SPA assay). The note with it: read-out: Percent inhibition of HIV Integrase at 70 uM. The procedure:
(§1) The in vitro activities, against integrase, of compounds of the present invention were measured by one of the following three methods.
(§2) In Method B, the in vitro activity against integrase was measured by binding, for each reaction, 5 pmole of biotin labeled substrate DNA to 100 ug of Streptavidin coated PVT SPA beads (Amersham Pharmacia Biotech). 0.26 ng of recombinant integrase was then incubated with the beads for 90 min at 37° C. Unbound enzyme was removed by washing the complex followed by addition of inhibitors and 0.1 fmol of P33 labeled target DNA. Reaction was stopped by adding EDTA to a final concentration of 10 mM. Samples were counted in TopCountNXT (Packard) and the CPM was used as a measure of integration. Reaction condition was as described in A. Engelman and R. Craigie, J. Virol. 69, 5908-5911 (1995). The sequences of substrate and target DNA were described in Nucleic Acid Research 22, 1121-1122 (1994).

For assay [2], the target named is T1, HIV Integrase. Put plainly: In vitro activity against integrase, Method C (electroluminescence, ECL assay). Conditions: read-out: Percent inhibition of HIV Integrase at 70 uM. The method, then:
as §1, §2
Method C (Electroluminesence Assay):
The ECL assay of Method C is essentially the same as the SPA assay of Method B, except that 0.5 μg of Streptavidin coated magnetic beads and 0.5 pmol Ru labeled target DNA were used for each reaction instead of SPA beads and P33 labeled DNA. The samples were read in a M8 analyzer (IGEN International, Inc).

Assay [3] addresses T2, HIV-1 integrase (Human immunodeficiency virus type 1 group M subtype B, UniProt P04585).
T2 construct: Purified recombinant HIV-1 integrase was incubated with immobilized precleaved substrate DNA
Put plainly: In vitro activity against integrase, Method A (immobilized precleaved substrate DNA, biotinylated target DNA, 96 well plate). The note with it: Assay Method A, read-out: Percent inhibition of HIV Integrase at 70 uM. The method, then: as §1
In Method A, the in vitro activity against integrase was measured in a manner which was similar to previously disclosed methods (cf. Hazuda, D. J.; Felock, P.; Witmer, M.; Wolfe, A.; Stillmock, K.; Grobler, J. A.; Espeseth, A.; Gabryelski, L.; Schleif, W.; Blau, C.; Miller, M. D. Science, 2000, 287, 646) Purified recombinant HIV-1 integrase was incubated with immobilized precleaved substrate DNA in a 96 well plate for 20 min at 37° C. After the integration complex was formed, compounds at desired concentrations were added to the wells followed by a 10 min incubation at 37° C. Biotinyted Target DNA was then added and the reaction was carried out for an additional 1 hour at 37° C. Wells were then washed thoroughly to remove any free DNA and integration activity was measured by using a commercial kit to quantitate the amount of biotinyted target DNA integrated into the substrate.

In general, inhibition refers to the percentage by which the read-out fell short of the control.

Molecules are shown by their SMILES.

`O=C(O)/C(O)=C/C(=O)N(Cc1ccccc1)Cc1ccccc1` [Compound 14, 3-Dibenzylcarbamoyl-2-hydroxy-acrylic acid]: the inhibition at 70 µM in assay [1] amounted to 94.5%.

On to `CN(Cc1ccc(F)cc1)C(=O)/C=C(\O)C(=O)O` [Compound 16, 3-[(4-Fluoro-benzyl)-methyl-carbamoyl]-2-hydroxy-acrylic acid], for which, in assay [1], the inhibition at 70 µM turned out to be 97%.

`CC(C)N(CCCc1ccccc1)C(=O)/C=C(\O)C(=O)O` [Compound 44, 2-Hydroxy-3-[isopropyl-(3-phenyl-propyl)-carbamoyl]-acrylic acid]: in assay [2], the inhibition at 70 µM came out at 95.5%.

Regarding `CN(Cc1ccc(Cl)cc1)C(=O)/C=C(\O)C(=O)O` [Compound 45, 3-[(4-Chloro-benzyl)-methyl-carbamoyl]-2-hydroxy-acrylic acid], the inhibition at 70 µM in assay [2] worked out at 99%.

On to `CN(CCCc1ccc(F)cc1)C(=O)/C=C(\O)C(=O)O` [Compound 46, 3-{[3-(4-Fluoro-phenyl)-propyl]-methyl-carbamoyl}-2-hydroxy-acrylic acid], for which the inhibition at 70 µM in assay [2] was 99%.

Regarding `O=C(O)/C(O)=C/C(=O)N(CCOc1ccc(F)cc1)Cc1ccc(F)cc1` [Compound 47, 3-{(4-Fluoro-benzyl)-[2-(4-fluoro-phenoxy)-ethyl]-carbamoyl}-2-hydroxy-acrylic acid], in assay [2], the inhibition at 70 µM is 99%.

As for `CN(Cc1ccc(F)c(Br)c1)C(=O)C=C(O)C(=O)O` [Compound 48, 3-[(3-Bromo-4-fluoro-benzyl)-methyl-carbamoyl]-2-hydroxy-acrylic acid], the inhibition at 70 µM in assay [2] amounted to 99%.

Take `O=C(O)/C(O)=C/C(=O)N(CCOc1ccccc1)Cc1ccc(F)cc1` [Compound 49, 3-[(4-Fluoro-benzyl)-(2-phenoxy-ethyl)-carbamoyl]-2-hydroxy-acrylic acid]: in assay [2], the inhibition at 70 µM stood at 99%.

With `CC(c1ccc(F)cc1)N(C)C(=O)/C=C(\O)C(=O)O` (centres unmarked) [Compound 50, 3-{[1-(4-Fluoro-phenyl)-ethyl]-methyl-carbamoyl}-2-hydroxy-acrylic acid], the inhibition at 70 µM in assay [2] was determined as 99%.

Take `O=C(O)/C(O)=C/C(=O)N(Cc1ccc(F)cc1)Cc1ccc2ccccc2c1` [Compound 53, 3-[(4-Fluoro-benzyl)-naphthalen-2-ylmethyl-carbamoyl]-2-hydroxy-acrylic acid]: the inhibition at 70 µM in assay [1] worked out at 99%.

In the case of `CN(Cc1ccc2ccccc2c1)C(=O)/C=C(\O)C(=O)O` [Compound 54, 2-Hydroxy-3-(methyl-naphthalen-2-ylmethyl-carbamoyl)-acrylic acid], the inhibition at 70 µM in assay [1] turned out to be 99%.

For `O=C(O)/C(O)=C/C(=O)N(Cc1ccc2ccccc2c1)c1ccc(Cl)cc1` [Compound 55, 3-[(4-Chloro-phenyl)-naphthalen-2-ylmethyl-carbamoyl]-2-hydroxy-acrylic acid], in assay [1], the inhibition at 70 µM turned out to be 99%.

As for `O=C(O)/C(O)=C/C(=O)N(CCCc1ccccc1)c1ccc(Cl)cc1` [Compound 56, 3-[(4-Chloro-phenyl)-(3-phenyl-propyl)-carbamoyl]-2-hydroxy-acrylic acid], in assay [1], the inhibition at 70 µM came out at 88%.

Take `O=C(O)/C(O)=C/C(=O)N(Cc1ccc(Cl)cc1)Cc1ccc(Cl)cc1` [Compound 57, 3-[Bis-(4-chloro-benzyl)-carbamoyl]-2-hydroxy-acrylic acid]: the inhibition at 70 µM in assay [1] came out at 99%.

Consider `CN(Cc1ccc(F)c(Cl)c1)C(=O)/C=C(\O)C(=O)O` [Compound 58, 3-[(3-Chloro-4-fluoro-benzyl)-methyl-carbamoyl]-2-hydroxy-acrylic acid], for which the inhibition at 70 µM in assay [1] came to 99%.

Take `CN(Cc1ccc(F)c(F)c1)C(=O)/C=C(\O)C(=O)O` [Compound 59, 3-[(3,4-Difluoro-benzyl)-methyl-carbamoyl]-2-hydroxy-acrylic acid]: in assay [1], the inhibition at 70 µM is 98%.

Take `COc1cc(CN(C)C(=O)/C=C(\O)C(=O)O)ccc1F` [Compound 60, 3-[(4-Fluoro-3-methoxy-benzyl)-methyl-carbamoyl]-2-hydroxy-acrylic acid]: the inhibition at 70 µM in assay [1] is 99%.

With `Cc1cc(CN(C)C(=O)/C=C(\O)C(=O)O)ccc1F` [Compound 61, 3-[(4-Fluoro-3-methyl-benzyl)-methyl-carbamoyl]-2-hydroxy-acrylic acid], the inhibition at 70 µM in assay [1] stood at 99%.

For `CN(Cc1cccc(Cl)c1)C(=O)/C=C(\O)C(=O)O` [Compound 62, 3-[(3-Chloro-benzyl)-methyl-carbamoyl]-2-hydroxy-acrylic acid], the inhibition at 70 µM in assay [1] stood at 99%.

Turning to `CN(Cc1cccc(-c2ccc(F)cc2)c1)C(=O)/C=C(\O)C(=O)O` [Compound 63, 3-[(4′-Fluoro-biphenyl-3-ylmethyl)-methyl-carbamoyl]-2-hydroxy-acrylic acid], the inhibition at 70 µM in assay [1] was determined as 98%.

`CN(Cc1cccc(Oc2ccccc2)c1)C(=O)/C=C(\O)C(=O)O` [Compound 64, 2-Hydroxy-3-[methyl-(3-phenoxy-benzyl)-carbamoyl]-acrylic acid]: the inhibition at 70 µM in assay [1] turned out to be 95%.

On to `O=C(O)/C(O)=C/C(=O)N(Cc1ccc(F)cc1)c1ccc(Cl)cc1` [Compound 70, 3-[(4-Chloro-phenyl)-(4-fluoro-benzyl)-carbamoyl]-2-hydroxy-acrylic acid], for which the inhibition at 70 µM in assay [1] came to 92%.

In the case of `Cc1ccc(CN(C(=O)/C=C(\O)C(=O)O)c2ccc(Cl)cc2)cc1` [Compound 71, 3-[(4-Chloro-phenyl)-(4-methyl-benzyl)-carbamoyl]-2-hydroxy-acrylic acid], the inhibition at 70 µM in assay [1] is 99%.

Turning to `O=C(O)/C(O)=C/C(=O)N(Cc1ccc(F)cc1)c1ccc(F)cc1` [Compound 72, 3-[(4-Fluoro-benzyl)-(4-fluoro-phenyl)-carbamoyl]-2-hydroxy-acrylic acid], the inhibition at 70 µM in assay [1] worked out at 99%.

For the molecule `Cc1ccc(CN(C(=O)/C=C(\O)C(=O)O)c2ccc(F)cc2)cc1` [Compound 73, 3-[(4-Fluoro-phenyl)-(4-methyl-benzyl)-carbamoyl]-2-hydroxy-acrylic acid], in assay [1], the inhibition at 70 µM turned out to be 99%.

In the case of `O=C(O)/C(O)=C/C(=O)N(Cc1ccc(F)cc1)Cc1ccco1` [Compound 74, 3-[(4-Fluoro-benzyl)-furan-2-ylmethyl-carbamoyl]-2-hydroxy-acrylic acid], the inhibition at 70 µM in assay [1] came to 98%.

In the case of `COc1ccc(CN(Cc2ccc(F)cc2)C(=O)/C=C(\O)C(=O)O)cc1Cl` [Compound 76, 3-[(3-Chloro-4-methoxy-benzyl)-(4-fluoro-benzyl)-carbamoyl]-2-hydroxy-acrylic acid], the inhibition at 70 µM in assay [1] stood at 99%.

`CN(CCC(c1ccc(F)cc1)c1ccc(F)cc1)C(=O)/C=C(\O)C(=O)O` [Compound 80, 3-{[3,3-Bis-(4-fluoro-phenyl)-propyl]-methyl-carbamoyl}-2-hydroxy-acrylic acid]: the inhibition at 70 µM in assay [1] amounted to 90%.

On to `CN(Cc1ccccc1Cc1ccc(F)cc1)C(=O)/C=C(\O)C(=O)O` [Compound 81, 3-{[2-(4-Fluoro-benzyl)-benzyl]-methyl-carbamoyl}-2-hydroxy-acrylic acid], for which, in assay [1], the inhibition at 70 µM is 95%.

On to `CN(Cc1ccccc1Cc1ccccc1)C(=O)/C=C(\O)C(=O)O` [Compound 84, 3-[(2-Benzyl-benzyl)-methyl-carbamoyl]-2-hydroxy-acrylic acid], for which the inhibition at 70 µM in assay [1] stood at 88%.

Regarding `O=C(O)/C(O)=C/C(=O)N(Cc1ccc(F)cc1)c1ccc(F)cc1OCc1ccc(F)cc1` [Compound 88, 3-{(4-Fluoro-benzyl)-[4-fluoro-2-(4-fluoro-benzyloxy)-phenyl]-carbamoyl}-2-hydroxy-acrylic acid], the inhibition at 70 µM in assay [3] was 90%.

Turning to `Cc1ccc(CNC(=O)/C=C(\O)C(=O)O)cc1F` [Compound 91, 3-(3-Fluoro-4-methyl-benzylcarbamoyl)-2-hydroxy-acrylic acid], the inhibition at 70 µM in assay [1] was 99%.

With `O=C(/C=C(\O)C(=O)O)NC(c1ccc(Cl)cc1)c1ccc(Cl)cc1` [Compound 92, 3-{[Bis-(4-chloro-phenyl)-methyl]-carbamoyl}-2-hydroxy-acrylic acid], the inhibition at 70 µM in assay [1] is 94%.

`O=C(O)CNC(=O)/C(O)=C/C(=O)N(Cc1ccc(F)cc1)Cc1ccc(F)cc1` [Compound 145, {3-[Bis-(4-fluoro-benzyl)-carbamoyl]-2-hydroxy-acryloylamino}-acetic acid]: the inhibition at 70 µM in assay [3] turned out to be 95%.

With `O=C(CCCCCNC(=O)/C(O)=C/C(=O)N(Cc1ccc(F)cc1)Cc1ccc(F)cc1)NS(=O)(=O)c1ccccc1` [Compound 146, 2-Hydroxy-but-2-enedioic acid 1-[(6-benzenesulfonylamino-6-oxo-hexyl)-amide] 4-[bis-(4-fluoro-benzyl)-amide]], the inhibition at 70 µM in assay [1] stood at 98%.

These data come from patent publication US6803378B2, “HIV integrase inhibitors” (Bristol-Myers Squibb Company, priority 2000, dated 2004).
